Results reported in patent US10745778B2, “Leaching aids and methods of using leaching aids” (BASF SE, priority 2015, dated 2020).

Experiment: Surface tension of synthetic pregnant leaching solution (Example 4)
Type: physicochemical
Details: synthetic PLS 6 g/L copper, 2 g/L iron, pH about 2.0
Procedure: This example investigated a method for determining the impact of a leaching aid on the surface tension of a typical leaching solution. A synthetic pregnant leaching solution (“PLS”) of 6 g/L copper and 2 g/L iron at a pH of about 2.0 was prepared in deionized (“DI”) water to form a quality control (“QC”) feed. To this, mixtures of synthetic PLS having varying levels of Leach aid A (i.e., MC1000) or Leach Aid B (i.e., TMP-7(EO)) were prepared and the surface tension of each solution was measured.

In the case of CCCCCCCCCC[N+](C)(C)CC(=O)[O-] [MC1000], the “surface tension as a function of concentration of the leaching aid” value is reported as “decreased with increasing concentration”.
